Experiments:
NCI-H1944 [1] = assay: Antiproliferative activity against SMARCA4-deficient human NCI-H1944 cells assessed as cell growth inhibition by measuring maximal efficacy measured after 7 days by WST-8 assay relative to control; assay type: functional; details: time 7 day
SK-MEL-28 [2] = assay: Antiproliferative activity against human SK-MEL-28 cells expressing wild-type SMARCA2 assessed as cell growth inhibition by measuring maximal efficacy measured after 7 days by WST-8 assay relative to control; assay type: functional; details: time 7 day
NCI-H647 [3] = assay: Antiproliferative activity against human NCI-H647 cells expressing wild-type SMARCA2 assessed as cell growth inhibition measured after 7 days by WST-8 assay; assay type: functional; details: NCI-H647, 168 h, time 7 day
NCI-H1793 [4] = assay: Antiproliferative activity against SMARCA4-deficient human NCI-H1793 cells assessed as cell growth inhibition by measuring maximal efficacy measured after 7 days by WST-8 assay relative to control; assay type: functional; details: time 7 day
A549 [5] = assay: Antiproliferative activity against SMARCA4-deficient human A549 cells assessed as cell growth inhibition measured after 7 days by WST-8 assay; assay type: functional; details: A549, 168 h, time 7 day
[6] = molecular target: T1, von Hippel-Lindau disease tumor suppressor/SWI/SNF-related matrix-associated actin-dependent regulator of chromatin subfamily A member 2 (Homo sapiens, UniProt P51531+P40337); assay: PROTAC activity at VHL/C-terminal HiBiT fused SMARCA2 in human HeLa cells assessed as induction of SMARCA2 degradation at 0.000001 to 1 uM by Nano-Glo HiBiT analysis; assay type: cell-based; details: dose lower 1e-06 µM, dose upper 1.0 µM, time 6-48 hrs, TDE = time-dependent effect
Target sequence in this assay (P40337 whole entry, looked up, the tested form may be a part): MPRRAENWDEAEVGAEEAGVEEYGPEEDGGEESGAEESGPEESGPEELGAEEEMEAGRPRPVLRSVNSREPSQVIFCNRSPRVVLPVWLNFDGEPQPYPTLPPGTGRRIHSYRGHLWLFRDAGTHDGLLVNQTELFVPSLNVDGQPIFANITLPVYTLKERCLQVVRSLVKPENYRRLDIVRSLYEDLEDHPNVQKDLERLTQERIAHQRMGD
Target sequence in this assay (P51531 whole entry, looked up, the tested form may be a part): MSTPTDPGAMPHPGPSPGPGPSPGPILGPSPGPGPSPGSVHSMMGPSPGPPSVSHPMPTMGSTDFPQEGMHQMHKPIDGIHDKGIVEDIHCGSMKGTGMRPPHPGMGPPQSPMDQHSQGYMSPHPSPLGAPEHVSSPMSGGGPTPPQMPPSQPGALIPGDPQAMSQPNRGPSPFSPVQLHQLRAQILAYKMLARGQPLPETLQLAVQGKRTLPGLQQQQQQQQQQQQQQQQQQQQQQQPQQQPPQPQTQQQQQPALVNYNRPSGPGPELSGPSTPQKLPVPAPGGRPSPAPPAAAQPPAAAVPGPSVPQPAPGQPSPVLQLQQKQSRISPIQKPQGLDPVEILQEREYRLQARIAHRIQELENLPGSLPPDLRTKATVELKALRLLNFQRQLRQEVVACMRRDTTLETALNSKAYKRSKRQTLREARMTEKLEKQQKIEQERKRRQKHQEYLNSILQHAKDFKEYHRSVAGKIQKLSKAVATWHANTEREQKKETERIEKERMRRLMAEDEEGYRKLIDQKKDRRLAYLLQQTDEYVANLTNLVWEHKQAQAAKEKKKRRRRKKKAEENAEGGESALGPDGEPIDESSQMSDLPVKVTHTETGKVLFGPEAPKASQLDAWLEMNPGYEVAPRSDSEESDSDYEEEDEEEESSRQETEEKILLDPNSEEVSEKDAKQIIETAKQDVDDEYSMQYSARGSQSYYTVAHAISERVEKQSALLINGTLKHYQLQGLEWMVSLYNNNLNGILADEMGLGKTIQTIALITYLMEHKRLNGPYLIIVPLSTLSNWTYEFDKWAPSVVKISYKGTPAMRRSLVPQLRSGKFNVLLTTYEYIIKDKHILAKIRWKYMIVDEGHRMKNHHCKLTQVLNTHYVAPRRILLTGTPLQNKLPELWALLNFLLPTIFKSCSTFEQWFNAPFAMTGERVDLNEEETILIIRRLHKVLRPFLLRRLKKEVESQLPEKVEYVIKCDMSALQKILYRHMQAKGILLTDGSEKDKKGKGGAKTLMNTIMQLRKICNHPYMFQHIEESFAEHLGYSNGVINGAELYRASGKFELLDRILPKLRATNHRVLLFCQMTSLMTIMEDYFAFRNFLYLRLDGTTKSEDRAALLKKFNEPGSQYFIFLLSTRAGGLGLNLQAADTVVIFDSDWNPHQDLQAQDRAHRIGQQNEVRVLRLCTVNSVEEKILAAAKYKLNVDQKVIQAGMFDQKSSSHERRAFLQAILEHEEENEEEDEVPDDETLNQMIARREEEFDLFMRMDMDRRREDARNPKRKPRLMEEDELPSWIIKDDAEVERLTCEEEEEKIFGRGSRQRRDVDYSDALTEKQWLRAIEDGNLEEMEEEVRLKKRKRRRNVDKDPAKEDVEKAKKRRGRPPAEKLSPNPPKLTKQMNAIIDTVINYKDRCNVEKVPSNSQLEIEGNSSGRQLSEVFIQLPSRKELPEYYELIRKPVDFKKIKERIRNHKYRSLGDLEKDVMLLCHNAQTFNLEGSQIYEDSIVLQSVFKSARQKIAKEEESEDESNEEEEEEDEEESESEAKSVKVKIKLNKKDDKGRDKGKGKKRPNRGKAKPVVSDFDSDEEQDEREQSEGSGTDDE

SK-MEL-5 [7] = assay: Antiproliferative activity against SMARCA4-deficient human SK-MEL-5 cells assessed as cell growth inhibition measured after 7 days by WST-8 assay; assay type: functional; details: SK-MEL-5, 168 h, time 7 day
NCI-H1975 [8] = assay: Antiproliferative activity against human NCI-H1975 cells expressing wild-type SMARCA2 assessed as cell growth inhibition by measuring maximal efficacy measured after 7 days by WST-8 assay relative to control; assay type: functional; details: time 7 day
NCI-H647 [9] = assay: Antiproliferative activity against human NCI-H647 cells expressing wild-type SMARCA2 assessed as cell growth inhibition by measuring maximal efficacy measured after 7 days by WST-8 assay relative to control; assay type: functional; details: time 7 day
NCI-H838 [10] = assay: Antiproliferative activity against SMARCA4-deficient human NCI-H838 cells assessed as cell growth inhibition measured after 7 days by WST-8 assay; assay type: functional; details: NCI-H838, 168 h, time 7 day
NCI-H1693 [11] = assay: Antiproliferative activity against SMARCA4-deficient human NCI-H1693 cells assessed as cell growth inhibition by measuring maximal efficacy measured after 7 days by WST-8 assay relative to control; assay type: functional; details: time 7 day
NCI-H1793 [12] = assay: Antiproliferative activity against SMARCA4-deficient human NCI-H1793 cells assessed as cell growth inhibition measured after 7 days by WST-8 assay; assay type: functional; details: NCI-H1793, 168 h, time 7 day
A549 [13] = assay: Antiproliferative activity against SMARCA4-deficient human A549 cells assessed as cell growth inhibition by measuring maximal efficacy measured after 7 days by WST-8 assay relative to control; assay type: functional; details: time 7 day
SK-MEL-28 [14] = assay: Antiproliferative activity against human SK-MEL-28 cells expressing wild-type SMARCA2 assessed as cell growth inhibition measured after 7 days by WST-8 assay; assay type: functional; details: SK-MEL-28, 168 h, time 7 day
SK-MEL-5 [15] = assay: Antiproliferative activity against SMARCA4-deficient human SK-MEL-5 cells assessed as cell growth inhibition by measuring maximal efficacy measured after 7 days by WST-8 assay relative to control; assay type: functional; details: time 7 day
[16] = molecular target: T2, von Hippel-Lindau disease tumor suppressor/SWI/SNF-related matrix-associated actin-dependent regulator of chromatin subfamily A member 4 (Homo sapiens, UniProt P51532+P40337); assay: PROTAC activity at VHL/C-terminal HiBiT fused SMARCA4 in human HeLa cells assessed as induction of SMARCA4 degradation incubated for 6 to 48 hrs by Nano-Glo HiBiT analysis; assay type: cell-based; details: dose lower 1e-05 µM, dose upper 1.0 µM, time 6-48 hrs
Target sequence in this assay (P40337 whole entry, looked up, the tested form may be a part): as the sequence (P40337 whole entry, looked up, the tested form may be a part) above
Target sequence in this assay (P51532 whole entry, looked up, the tested form may be a part): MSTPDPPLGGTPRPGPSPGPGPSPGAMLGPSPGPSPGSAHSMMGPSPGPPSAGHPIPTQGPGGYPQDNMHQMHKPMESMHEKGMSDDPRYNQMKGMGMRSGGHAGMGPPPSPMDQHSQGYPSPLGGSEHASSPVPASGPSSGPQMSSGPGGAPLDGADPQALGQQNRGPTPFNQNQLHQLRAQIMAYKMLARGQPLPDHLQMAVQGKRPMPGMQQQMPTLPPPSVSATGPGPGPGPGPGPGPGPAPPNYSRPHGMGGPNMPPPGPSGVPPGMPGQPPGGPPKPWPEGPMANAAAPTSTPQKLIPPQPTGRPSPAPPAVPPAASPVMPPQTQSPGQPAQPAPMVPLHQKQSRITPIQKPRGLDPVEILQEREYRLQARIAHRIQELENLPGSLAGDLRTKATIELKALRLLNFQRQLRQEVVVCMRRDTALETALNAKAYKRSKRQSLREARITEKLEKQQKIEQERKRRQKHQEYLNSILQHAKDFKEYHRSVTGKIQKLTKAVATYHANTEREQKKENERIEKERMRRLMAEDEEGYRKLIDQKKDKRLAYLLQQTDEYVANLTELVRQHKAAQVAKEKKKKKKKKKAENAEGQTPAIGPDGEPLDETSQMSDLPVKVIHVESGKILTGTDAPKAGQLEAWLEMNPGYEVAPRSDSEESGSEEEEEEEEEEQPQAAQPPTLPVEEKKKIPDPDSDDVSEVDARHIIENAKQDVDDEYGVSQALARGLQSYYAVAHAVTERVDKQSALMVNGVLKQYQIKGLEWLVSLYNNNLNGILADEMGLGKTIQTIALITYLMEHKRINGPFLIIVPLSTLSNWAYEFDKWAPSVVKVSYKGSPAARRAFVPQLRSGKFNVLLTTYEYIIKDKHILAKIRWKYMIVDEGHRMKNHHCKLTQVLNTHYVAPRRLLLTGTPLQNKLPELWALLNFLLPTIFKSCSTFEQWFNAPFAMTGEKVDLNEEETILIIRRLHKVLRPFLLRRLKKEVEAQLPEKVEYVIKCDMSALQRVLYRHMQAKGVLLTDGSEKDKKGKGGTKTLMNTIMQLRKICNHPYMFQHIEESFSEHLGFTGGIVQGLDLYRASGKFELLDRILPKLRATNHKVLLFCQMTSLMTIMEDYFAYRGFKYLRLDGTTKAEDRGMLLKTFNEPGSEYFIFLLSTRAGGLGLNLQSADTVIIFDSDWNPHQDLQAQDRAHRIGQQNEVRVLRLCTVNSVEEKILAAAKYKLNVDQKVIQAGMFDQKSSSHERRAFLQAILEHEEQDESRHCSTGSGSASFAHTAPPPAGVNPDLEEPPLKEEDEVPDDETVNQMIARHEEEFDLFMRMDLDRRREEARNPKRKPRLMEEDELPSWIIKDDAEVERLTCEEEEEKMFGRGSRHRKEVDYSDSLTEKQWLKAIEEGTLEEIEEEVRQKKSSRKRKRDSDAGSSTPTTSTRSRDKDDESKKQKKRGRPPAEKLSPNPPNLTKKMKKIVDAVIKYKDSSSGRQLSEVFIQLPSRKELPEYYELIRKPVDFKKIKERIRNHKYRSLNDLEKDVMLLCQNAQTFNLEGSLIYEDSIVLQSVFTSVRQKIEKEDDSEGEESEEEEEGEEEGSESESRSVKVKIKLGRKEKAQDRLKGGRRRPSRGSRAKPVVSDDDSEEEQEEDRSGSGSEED

[17] = Antiproliferative activity against SMARCA4-deficient human NCI-H1568 cells assessed as cell growth inhibition measured after 7 days by WST-8 assay; assay type: functional; details: NCI-H1568, 168 h, time 7 day
NCI-H1944 [18] = assay: Antiproliferative activity against SMARCA4-deficient human NCI-H1944 cells assessed as cell growth inhibition measured after 7 days by WST-8 assay; assay type: functional; details: NCI-H1944, 168 h, time 7 day
NCI-H1792 [19] = assay: Antiproliferative activity against human NCI-H1792 cells expressing wild-type SMARCA2 assessed as cell growth inhibition measured after 7 days by WST-8 assay; assay type: functional; details: NCI-H1792, 168 h, time 7 day
NCI-H1792 [20] = assay: Antiproliferative activity against human NCI-H1792 cells expressing wild-type SMARCA2 assessed as cell growth inhibition by measuring maximal efficacy measured after 7 days by WST-8 assay relative to control; assay type: functional; details: time 7 day
[21] = molecular target: T2, von Hippel-Lindau disease tumor suppressor/SWI/SNF-related matrix-associated actin-dependent regulator of chromatin subfamily A member 4; assay: PROTAC activity at VHL/SMARCA4 in human RKO cells assessed as induction of […] degradation by measuring maximal efficacy incubated for 18 hrs by Western blotting analysis relative to control; assay type: cell-based
Target sequence in this assay (P40337 whole entry, looked up, the tested form may be a part): as the sequence (P40337 whole entry, looked up, the tested form may be a part) above
Target sequence in this assay (P51532 whole entry, looked up, the tested form may be a part): as the sequence (P51532 whole entry, looked up, the tested form may be a part) above

[22] = molecular target: T2, von Hippel-Lindau disease tumor suppressor/SWI/SNF-related matrix-associated actin-dependent regulator of chromatin subfamily A member 4; assay: PROTAC activity at VHL/C-terminal HiBiT fused SMARCA4 in human HeLa cells assessed as induction of SMARCA4 degradation incubated for 24 hrs by Nano-Glo HiBiT analysis; assay type: cell-based
[23] = molecular target: T2, von Hippel-Lindau disease tumor suppressor/SWI/SNF-related matrix-associated actin-dependent regulator of chromatin subfamily A member 4; assay: PROTAC activity at VHL/SMARCA4 in human RKO cells assessed as induction of […] degradation incubated for 18 hrs by Western blotting analysis; assay type: cell-based
NCI-H1975 [24] = assay: Antiproliferative activity against human NCI-H1975 cells expressing wild-type SMARCA2 assessed as cell growth inhibition measured after 7 days by WST-8 assay; assay type: functional; details: NCI-H1975, 168 h, time 7 day
[25] = molecular target: T2, von Hippel-Lindau disease tumor suppressor/SWI/SNF-related matrix-associated actin-dependent regulator of chromatin subfamily A member 4; assay: PROTAC activity at VHL/C-terminal HiBiT fused SMARCA4 in human HeLa cells assessed as induction of SMARCA4 degradation by measuring maximal efficacy incubated for 24 hrs by Nano-Glo HiBiT analysis relative to control; assay type: cell-based
Target sequence in this assay (P40337 whole entry, looked up, the tested form may be a part): as the sequence (P40337 whole entry, looked up, the tested form may be a part) above
Target sequence in this assay (P51532 whole entry, looked up, the tested form may be a part): as the sequence (P51532 whole entry, looked up, the tested form may be a part) above

NCI-H1693 [26] = assay: Antiproliferative activity against SMARCA4-deficient human NCI-H1693 cells assessed as cell growth inhibition measured after 7 days by WST-8 assay; assay type: functional; details: NCI-H1693, 168 h, time 7 day
[27] = molecular target: T2, von Hippel-Lindau disease tumor suppressor/SWI/SNF-related matrix-associated actin-dependent regulator of chromatin subfamily A member 4; assay: PROTAC activity at VHL/C-terminal HiBiT fused SMARCA4 in human HeLa cells assessed as induction of SMARCA4 degradation at 0.00001 to 1 uM by Nano-Glo HiBiT analysis; assay type: cell-based; details: dose lower 1e-05 µM, dose upper 1.0 µM, time 6-48 hrs, TDE = time-dependent effect
Target sequence in this assay (P40337 whole entry, looked up, the tested form may be a part): as the sequence (P40337 whole entry, looked up, the tested form may be a part) above
Target sequence in this assay (P51532 whole entry, looked up, the tested form may be a part): as the sequence (P51532 whole entry, looked up, the tested form may be a part) above

[28] = molecular target: T1, von Hippel-Lindau disease tumor suppressor/SWI/SNF-related matrix-associated actin-dependent regulator of chromatin subfamily A member 2; assay: PROTAC activity at VHL/C-terminal HiBiT fused SMARCA2 in human HeLa cells assessed as induction of SMARCA2 degradation incubated for 6 to 48 hrs by Nano-Glo HiBiT analysis; assay type: cell-based; details: dose lower 1e-06 µM, dose upper 1.0 µM, time 6-48 hrs
Target sequence in this assay (P40337 whole entry, looked up, the tested form may be a part): as the sequence (P40337 whole entry, looked up, the tested form may be a part) above
Target sequence in this assay (P51531 whole entry, looked up, the tested form may be a part): as the sequence (P51531 whole entry, looked up, the tested form may be a part) above

[29] = molecular target: T1, von Hippel-Lindau disease tumor suppressor/SWI/SNF-related matrix-associated actin-dependent regulator of chromatin subfamily A member 2; assay: PROTAC activity at VHL/SMARCA2 in human RKO cells assessed as induction of SMARCA2 degradation by measuring maximal efficacy incubated for 18 hrs by Western blotting analysis relative to control; assay type: cell-based
Target sequence in this assay (P40337 whole entry, looked up, the tested form may be a part): as the sequence (P40337 whole entry, looked up, the tested form may be a part) above
Target sequence in this assay (P51531 whole entry, looked up, the tested form may be a part): as the sequence (P51531 whole entry, looked up, the tested form may be a part) above

NCI-H838 [30] = assay: Antiproliferative activity against SMARCA4-deficient human NCI-H838 cells assessed as cell growth inhibition by measuring maximal efficacy measured after 7 days by WST-8 assay relative to control; assay type: functional; details: time 7 day
[31] = Antiproliferative activity against SMARCA4-deficient human NCI-H1568 cells assessed as cell growth inhibition by measuring maximal efficacy measured after 7 days by WST-8 assay relative to control; assay type: functional; details: time 7 day
NCI-H1299 [32] = assay: Antiproliferative activity against SMARCA4-deficient human NCI-H1299 cells assessed as cell growth inhibition by measuring maximal efficacy measured after 7 days by WST-8 assay relative to control; assay type: functional; details: time 7 day
[33] = molecular target: T1, von Hippel-Lindau disease tumor suppressor/SWI/SNF-related matrix-associated actin-dependent regulator of chromatin subfamily A member 2; assay: PROTAC activity at VHL/C-terminal HiBiT fused SMARCA2 in human HeLa cells assessed as induction of SMARCA2 degradation by measuring maximal efficacy incubated for 24 hrs by Nano-Glo HiBiT analysis relative to control; assay type: cell-based
Target sequence in this assay (P40337 whole entry, looked up, the tested form may be a part): as the sequence (P40337 whole entry, looked up, the tested form may be a part) above
Target sequence in this assay (P51531 whole entry, looked up, the tested form may be a part): as the sequence (P51531 whole entry, looked up, the tested form may be a part) above

[34] = molecular target: T1, von Hippel-Lindau disease tumor suppressor/SWI/SNF-related matrix-associated actin-dependent regulator of chromatin subfamily A member 2; assay: PROTAC activity at VHL/SMARCA2 in human RKO cells assessed as induction of SMARCA2 degradation incubated for 18 hrs by Western blotting analysis; assay type: cell-based
NCI-H1299 [35] = assay: Antiproliferative activity against SMARCA4-deficient human NCI-H1299 cells assessed as cell growth inhibition measured after 7 days by WST-8 assay; assay type: functional; details: NCI-H1299, 168 h, time 7 day

`Cc1ncsc1-c1ccc([C@H](CC[C@H](C)CCN2CCC(c3ccc4c(c3)n(C3CCCC3)c3nc(=O)c5c(Br)cccc5n43)CC2)NC(=O)[C@@H]2C[C@@H](O)CN2C(=O)[C@@H](NC(=O)C2(F)CC2)C(C)(C)C)cc1` showed an Imax (NCI-H1944 [1]) of 82%, an Imax (SK-MEL-28 [2]) of 50% and a GI50 (NCI-H647 [3]) of 165 nM. For the same compound, the Imax (NCI-H1793 [4]) was 68%, the GI50 (A549 [5]) was 30 nM and the Activity [6] was “Tde”. It also gave a GI50 (SK-MEL-5 [7]) of 4.9 nM, an Imax (NCI-H1975 [8]) of 63% and an Imax (NCI-H647 [9]) of 80%. For the same compound, the GI50 (NCI-H838 [10]) was 67 nM, the Imax (NCI-H1693 [11]) was 86% and the GI50 (NCI-H1793 [12]) was 7.3 nM. For the same compound, the Imax (A549 [13]) was 56%, the GI50 (SK-MEL-28 [14]) was over 10000 nM and the Imax (SK-MEL-5 [15]) was 96%. The Activity [16] was “Dose-Dependent Effect”, the GI50 [17] was 2.8 nM and the GI50 (NCI-H1944 [18]) was 13 nM. The GI50 (NCI-H1792 [19]) was 135 nM, the Imax (NCI-H1792 [20]) was 65% and the Emax [21] was 67%. It also gave a DC50 [22] of 9 nM, a DC50 [23] of 32 nM and a GI50 (NCI-H1975 [24]) of 65 nM. The Emax [25] was 92%, the GI50 (NCI-H1693 [26]) was 2.8 nM and the Activity [27] was “Tde”. The Activity [28] was “Dose-Dependent Effect”, the Emax [29] was 81% and the Imax (NCI-H838 [30]) was 82%. It also gave an Imax [31] of 90%, an Imax (NCI-H1299 [32]) of 74% and an Emax [33] of 94%. The DC50 [34] was 1 nM and the GI50 (NCI-H1299 [35]) was 116 nM.

— ChEMBL document CHEMBL5325488, “Discovery of SMD-3040 as a Potent and Selective SMARCA2 PROTAC Degrader with Strong in vivo Antitumor Activity” (J Med Chem, 2023)
